For one assay, the system named is ATXN3 Pre-mRNA. Briefly: RT-qPCR Assay to Quantify Exon 4 Skipping in ATXN3 Pre-mRNA in Cells. Type of assay: cell-based. The following applies: for pIC50 / IC50: percent exon 4 skipping by RT-qPCR after 24 h, 7-point concentration curve; for pIC50: read-out: IC50. On the procedure: (§1) Test compounds were serially diluted 3.16-fold in 100% DMSO to generate a 7-point concentration curve. Aliquots of 0.5 μL of diluted compounds were transferred to a 96-well flat bottom plate by a liquid handler. An aliquot of 0.5 μL DMSO was also transferred to separate wells and used as controls. Duplicate samples were set up for each compound concentration and for the DMSO control.
Cells were thawed and incubated in cell culture media (DMEM, 10% FBS, and 1% antibiotic cocktail) for 72 h. Cells were trypsinized, counted, and re-suspended to a concentration of 100,000 cells/mL in cell culture media. A 100 μL aliquot of the cell suspensions were plated at 10,000 cells per well in the compound containing 96 well microtiter plate and incubated for in a cell culture incubator (37° C., 5% CO2, 100% relative humidity).
After 24 h, media was aspirated from the cells and 50 μL of the RCL2 lysis buffer (10 mM Tris-HCL pH 7.4, 150 mM NaCl, 0.33% IGEPAL® CA-630) was added to each well and incubated at RT for 1 min. Chilled nuclease free water (50 μL per well) was added and the plates were immediately transferred on ice. After 1 min on ice, plates were frozen at −80° C. overnight.
Preparation of RT-qPCR Reaction Mixture:
An aliquot of 2 μL/well of the cell lysates was transferred using the liquid handler to the Armadillo 384-Well PCR plate containing 8 μL/well of the RT-qPCR reaction mixture that was prepared as detailed above. The plates were then sealed with MicroAmp™ Optical Adhesive Film followed by spinning down for 1 min and placed in the CFX384 thermocycler (BioRad).
The RT-qPCR was carried out at the following temperatures for the indicated time: • Step 1:48° C. (30 min) • Step 2: 95° C. (10 min) • Step 3: 95° C. (15 sec) • Step 4: 60° C. (1 min); then, repeated Steps 3 and 4 for a total of 40 cycles.
The percent exon 4 skipping was calculated for each dose of compound treatment using Equations 1 and 2.
Data were fit to a dose response curve and the IC50 was interpolated using XLfit® statistical and curve fitting package.
An IC50 value between >2.0 μM and ≤3.0 μM is indicated by one star (*). […] IC50 value between >0.5 μM and ≤1.0 μM is indicated by four stars (****). An IC50 value≤0.5 μM is indicated by five stars (*****).

Assay [1] deals with Endogenous Total ATXN3 (tATXN3) Protein. Briefly: Endogenous Total ATXN3 (tATXN3) Protein Assay (MSD). It counts as cell-based. The following applies: for pIC50 / IC50: average IC50, total ATXN3 protein in cell lysate after 48 h, 7-point concentration curve; for pIC50: read-out: IC50. On the procedure: Meso Scale Discovery (MSD) 96-well or 384-well plates were coated overnight at 4° C. with Ataxin 3 mouse monoclonal antibody (Invitrogen, MA3-082) at a concentration of 0.5 μg/mL in PBS (30 μL per well). Plates were then washed three times with 300 μL wash buffer (0.05% TWEEN®-20, polyethylene glycol sorbitan monolaurate, in PBS) and blocked (Meso Scale Diagnostics, R93BA-1; 5% BSA in PBS) for 2 h at RT with rotational shaking and then washed three times with wash buffer.
as §1
Cells were thawed and incubated in cell culture media (DMEM, 10% FBS, and 1% antibiotic cocktail) for 72 h. Cells were trypsinized, counted, and re-suspended to a concentration of 100,000 cells/mL in cell culture media. A 100 μL aliquot of the cell suspensions were plated at 10,000 cells per well in the compound containing 96 well microtiter plate and incubated for in a cell culture incubator (37° C., 5% CO2, 100% relative humidity). After 48 h, the medium was removed and 50-100 μL of lysis buffer (Meso Scale Diagnostics, R60TX-2) containing 1× halt protease inhibitor cocktail of (Thermo Scientific, Halt™ Protease Inhibitor Cocktail, 78430) per well was added to cells to provide a “cell lysate”. The plate was placed on a shaker at 4° C. for 30 minutes, then stored at −80° C.
Cell lysate samples (25 μL) were transferred to the antibody-coated MSD plate and incubated overnight at 4° C. After removal of the lysates, the plate was washed three times with wash buffer, and 25 μL of Ataxin 3 recombinant rabbit monoclonal antibody (Invitrogen, #702788) secondary antibody (diluted to 0.25 μg/mL in 0.05% TWEEN®-20 in blocking buffer) was added to each well and incubated with shaking for 1-2 h at room temperature. Following incubation with the secondary antibody, the wells were rinsed with wash buffer and then […] Anti Rabbit Antibody Goat SULFO-TAG Labeled (Meso Scale Diagnostics, R32AB-1) detecting antibody (diluted to 0.25 μg/mL in 0.05% TWEEN®-20 in blocking buffer) was added to each well and incubated with shaking for 1 h at room temperature. After rinsing three times with wash buffer, 150 μL of Read Buffer T with surfactant (tris-based buffer containing tripropylamine, Meso Scale Diagnostics, R92TC-1) were added to each empty well, and the plate was imaged on a SI 6000 imager (MSD) according to manufacturers' instructions provided for 96- or 384-well plates.

13 compounds from patent US20240041886A1, “METHODS FOR TREATING SPINOCEREBELLAR ATAXIA TYPE 3” (PTC Therapeutics, Inc., priority 2021, published 2024) can be followed below.

The structures appear in SMILES notation. pIC50: −log10 of the molar value. Read-outs that look alike come from different tables or passages of the source. Some results are limits rather than exact numbers.

Broadly, the pIC50 is the IC50 on a negative log10 scale, so that one unit is a factor of ten.

In the case of `Clc1nc(NCc2ccncc2)c2cc[nH]c2n1` [Comparison Compound 1, 2-chloro-N-(pyridin-4-ylmethyl)-7H-pyrrolo[2,3-d]pyrimidin-4-amine, reference compound], in the assay with ATXN3 Pre-mRNA (tested according to the assay of Example 2), the “ATXN3 mRNA IC50” value is “inactive”. Also, the “ATXN3 Protein IC50” value in assay [1] (tested according to the assay of Example 1) is “inactive”.
Take `C[C@H](N)Cc1[nH]c2nc(Cl)nc(NCc3ccco3)c2c1F` [Cpd 10, 6-[(2S)-2-aminopropyl]-2-chloro-5-fluoro-N-[(furan-2-yl)methyl]-7H-pyrrolo[2,3-d]pyrimidin-4-amine]: the negative logarithm of the IC50 (pIC50) (in the assay with ATXN3 Pre-mRNA; in assay [1]) was not below 6.30 throughout.
As for `CNCCc1[nH]c2nc(Cl)nc(NCc3ccco3)c2c1Cl` [Cpd 17, 2,5-dichloro-N-[(furan-2-yl)methyl]-6-[2-(methylamino)ethyl]-7H-pyrrolo[2,3-d]pyrimidin-4-amine], the pIC50 in the assay on ATXN3 Pre-mRNA was 5.70 to 5.82; in assay [1] it was 5.82 to 6.00.
Consider `C[C@H](N)Cc1c(Cl)c2c(NCc3ccco3)nc(Cl)nc2n1C` [Cpd 23, 6-[(2S)-2-aminopropyl]-2,5-dichloro-N-[(furan-2-yl)methyl]-7-methyl-7H-pyrrolo[2,3-d]pyrimidin-4-amine], for which the pIC50 (in the assay on ATXN3 Pre-mRNA; in assay [1]) was 6.00 to 6.30 in each case.
For `C[C@H](N)Cc1c(F)c2c(NCc3ccco3)nc(Cl)nc2n1C` [Cpd 24, 6-[(2S)-2-aminopropyl]-2-chloro-5-fluoro-N-[(furan-2-yl)methyl]-7-methyl-7H-pyrrolo[2,3-d]pyrimidin-4-amine], the figures for the pIC50 (in the assay on ATXN3 Pre-mRNA; in assay [1]) were 5.82 to 6.00 and 6.00 to 6.30, respectively.
Regarding `Cc1c(C[C@H](C)N)n(C)c2nc(Cl)nc(NCc3ccco3)c12` [Cpd 35, 6-[(2S)-2-aminopropyl]-2-chloro-N-[(furan-2-yl)methyl]-5,7-dimethyl-7H-pyrrolo[2,3-d]pyrimidin-4-amine], the pIC50 (with ATXN3 Pre-mRNA; in assay [1]) was not below 6.30 throughout.
As for `C[C@H](N)Cc1c(F)c2c(NCc3nccs3)nc(Cl)nc2n1C` [Cpd 38, 6-[(2S)-2-aminopropyl]-2-chloro-5-fluoro-7-methyl-N-[(1,3-thiazol-2-yl)methyl]-7H-pyrrolo[2,3-d]pyrimidin-4-amine], the pIC50 (with ATXN3 Pre-mRNA; in assay [1]) was 5.82 to 6.00 each time.
With `C[C@H](N)Cc1c(F)c2c(NCc3ccncc3F)nc(Cl)nc2n1C` [Cpd 41, 6-[(2S)-2-aminopropyl]-2-chloro-5-fluoro-N-[(3-fluoropyridin-4-yl)methyl]-7-methyl-7H-pyrrolo[2,3-d]pyrimidin-4-amine], the pIC50 with ATXN3 Pre-mRNA is 5.52 to 5.70; in assay [1], 5.82 to 6.00.
The like results for `C[C@H](N)Cc1c(F)c2c(NCc3ccncc3)nc(Cl)nc2n1C` [Cpd 43, 6-[(2S)-2-aminopropyl]-2-chloro-5-fluoro-7-methyl-N-[(pyridin-4-yl)methyl]-7H-pyrrolo[2,3-d]pyrimidin-4-amine] were, in that order, 5.52 to 5.70 and 5.70 to 5.82.
As for `C[C@H](N)Cc1c(F)c2c(NCc3cncs3)nc(Cl)nc2n1C` [Cpd 48, 6-[(2S)-2-aminopropyl]-2-chloro-5-fluoro-7-methyl-N-[(1,3-thiazol-5-yl)methyl]-7H-pyrrolo[2,3-d]pyrimidin-4-amine], the IC50 entry (with ATXN3 Pre-mRNA; in assay [1]) was “inactive” throughout.
Consider `C[C@H](N)Cc1c(F)c2c(NCc3cccs3)nc(Cl)nc2n1C` [Cpd 49, 6-[(2S)-2-aminopropyl]-2-chloro-5-fluoro-7-methyl-N-[(thiophen-2-yl)methyl]-7H-pyrrolo[2,3-d]pyrimidin-4-amine], for which the figures for the negative logarithm of the IC50 (pIC50) (in the assay on ATXN3 Pre-mRNA; in assay [1]) were 6.00 to 6.30 and 5.82 to 6.00, respectively.
On to `C[C@H](N)Cc1c(F)c2c(NCc3ccccn3)nc(Cl)nc2n1C` [Cpd 55, 6-[(2S)-2-aminopropyl]-2-chloro-5-fluoro-7-methyl-N-[(pyridin-2-yl)methyl]-7H-pyrrolo[2,3-d]pyrimidin-4-amine], for which the IC50 entry (with ATXN3 Pre-mRNA; in assay [1]) was “inactive” in each case.
As for `C[C@H](N)Cc1c(F)c2c(NCc3cccnc3)nc(Cl)nc2n1C` [Cpd 57, 6-[(2S)-2-aminopropyl]-2-chloro-5-fluoro-7-methyl-N-[(pyridin-3-yl)methyl]-7H-pyrrolo[2,3-d]pyrimidin-4-amine], the IC50 result (with ATXN3 Pre-mRNA; in assay [1]) was “inactive” throughout.
